Test results taken from patent US12077503B2, “Substituted cyclic amides and their use as herbicides” (FMC CORPORATION, priority 2015, dated 2024).

Legend:
Type in all cases: in vivo
[1] = tested on: barnyardgrass (Echinochloa crus-galli); assay: Test A preemergence; details: Echinochloa crus-galli, pre-emergence, 240 h, 0 to 100 scale where 0 is no effect and 100 is complete control, read-out: Barnyardgrass plant response rating
Procedure, shortened: (§1)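 In a loam soil and sand blend, planted seeds got a preemergence directed soil spray, and young plants at the one- to two-leaf stage, 2–10 cm high, got a postemergence application; ~10 d greenhouse hold; injury rated visually, 0 = none, 100 = complete control.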

Kochia (Kochia scoparia) [2] = assay: Test A preemergence; details: Bassia scoparia, pre-emergence, 240 h, 0 to 100 scale where 0 is no effect and 100 is complete control, read-out: Kochia plant response rating
Procedure, shortened: as §1

[3] = tested on: ryegrass, Italian (Italian ryegrass, Lolium multiflorum); assay: Test A preemergence; details: Lolium multiflorum, pre-emergence, 240 h, 0 to 100 scale where 0 is no effect and 100 is complete control, read-out: Ryegrass, Italian plant response rating
Procedure, shortened: as §1

[4] = tested on: ragweed (common ragweed, Ambrosia elatior); assay: Test A preemergence; details: Ambrosia artemisiifolia, pre-emergence, 240 h, 0 to 100 scale where 0 is no effect and 100 is complete control, read-out: Ragweed plant response rating
Procedure, shortened: as §1

[5] = tested on: pigweed (Amaranthus retroflexus); assay: Test A preemergence; details: Amaranthus retroflexus, pre-emergence, 240 h, 0 to 100 scale where 0 is no effect and 100 is complete control, read-out: Pigweed plant response rating
[6] = tested on: giant foxtail (Setaria faberii); assay: Test A preemergence; details: Setaria faberi, pre-emergence, 240 h, 0 to 100 scale where 0 is no effect and 100 is complete control, read-out: Foxtail, Giant plant response rating
Procedure, shortened: as §1

[7] = tested on: barnyardgrass (Echinochloa crus-galli); assay: Test A postemergence; details: Echinochloa crus-galli, post-emergence, 240 h
Procedure, shortened: as §1

Kochia (Kochia scoparia) [8] = assay: Test A postemergence; details: Bassia scoparia, post-emergence, 240 h
Procedure, shortened: as §1

[9] = tested on: ryegrass, Italian (Italian ryegrass, Lolium multiflorum); assay: Test A postemergence; details: Lolium multiflorum, post-emergence, 240 h
Procedure, shortened: as §1

[10] = tested on: ragweed (common ragweed, Ambrosia elatior); assay: Test A postemergence; details: Ambrosia artemisiifolia, post-emergence, 240 h
Procedure, shortened: as §1

corn (Zea mays) = assay: Test A postemergence; details: Zea mays, post-emergence, 240 h
Procedure, shortened: as §1

[11] = tested on: wheat (Triticum aestivum); assay: Test A postemergence; details: Triticum aestivum, post-emergence, 240 h
Procedure, shortened: as §1

[12] = tested on: pigweed (Amaranthus retroflexus); assay: Test A postemergence; details: Amaranthus retroflexus, post-emergence, 240 h
Procedure, shortened: as §1

[13] = tested on: blackgrass (Alopecurus myosuroides); assay: Test A postemergence; details: Alopecurus myosuroides, post-emergence, 240 h
Procedure, shortened: as §1

[14] = tested on: giant foxtail (Setaria faberii); assay: Test A postemergence; details: Setaria faberi, post-emergence, 240 h
Procedure, shortened: as §1

[15] = tested on: barnyardgrass (Echinochloa crus-galli); assay: Test B flooded paddy test; details: Echinochloa crus-galli, 250 g ai/ha, Flood; 0 to 100 scale where 0 is no effect and 100 is complete control; read-out: Barnyardgrass plant response rating
Procedure, shortened: (§2)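 Greenhouse paddy pots with 2-leaf stage plants received compound by direct addition to floodwater 3 cm deep, kept at that level. Scored visually at 13–15 d versus controls (0 no effect; 100 complete control).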

[16] = tested on: sedge, umbrella (small-flower umbrella sedge, Cyperus difformis); assay: Test B flooded paddy test; details: Cyperus difformis, 250 g ai/ha, Flood; 0 to 100 scale where 0 is no effect and 100 is complete control; read-out: Sedge, Umbrella plant response rating
Procedure, shortened: as §2

rice (Oryra sativa) = assay: Test B flooded paddy test; details: Oryza sativa, 250 g ai/ha, Flood; 0 to 100 scale where 0 is no effect and 100 is complete control; read-out: Rice plant response rating
Procedure, shortened: as §2

[17] = tested on: ducksalad (Heteranthera limosa); assay: Test B flooded paddy test; details: Heteranthera limosa, 250 g ai/ha, Flood; 0 to 100 scale where 0 is no effect and 100 is complete control; read-out: Ducksalad plant response rating
Procedure, shortened: as §2

[18] = 125 g ai/ha, preemergence, approx. 10 d

In the case of `CC(C)Oc1cc([C@H]2CN(C)C(=O)[C@@H]2C(=O)Nc2cccc(F)c2F)ccc1F` [Compound 1075], the pest or weed control at 31 g/ha ([1]; 31 g ai/ha, Preemergence) is reported as 100%, the pest or weed control at 125 g/ha [1, 18] is reported as 100% and the pest or weed control at 31 g/ha (Kochia (Kochia scoparia) [2]; 31 g ai/ha, Preemergence) is reported as 0%. The pest or weed control at 125 g/ha (Kochia (Kochia scoparia) [2]; [18]) was 30%, the pest or weed control at 31 g/ha ([3]; 31 g ai/ha, Preemergence) was 50% and the pest or weed control at 125 g/ha [3, 18] was 80%. The pest or weed control at 31 g/ha ([4]; 31 g ai/ha, Preemergence) was 30%, the pest or weed control at 125 g/ha [4, 18] was 20% and the pest or weed control at 31 g/ha ([5]; 31 g ai/ha, Preemergence) was 0%. For the same compound, the pest or weed control at 125 g/ha [5, 18] was 20%, the pest or weed control at 31 g/ha ([6]; 31 g ai/ha, Preemergence) was 100% and the pest or weed control at 125 g/ha [6, 18] was 100%. For the same compound, the pest or weed control at 125 g/ha ([7]; 125 g ai/ha, postemergence, visual injury on 0 to 100 scale (0 no effect, 100 complete control), approx. 10 d, read-out: Barnyardgrass plant response rating) was 90%, the pest or weed control at 31 g/ha ([7]; Postemergence, 31 g ai/ha, visual injury after approx. 10 d, 0 to 100 scale, 0 no effect, 100 complete control, read-out: Plant response rating, Barnyardgrass) was 90% and the pest or weed control at 125 g/ha (Kochia (Kochia scoparia) [8]; 125 g ai/ha, postemergence, visual injury on 0 to 100 scale (0 no effect, 100 complete control), approx. 10 d, read-out: Kochia plant response rating) was 30%. For the same compound, the pest or weed control at 31 g/ha (Kochia (Kochia scoparia) [8]; Postemergence, 31 g ai/ha, visual injury after approx. 10 d, 0 to 100 scale, 0 no effect, 100 complete control, read-out: Plant response rating, Kochia) was 30%, the pest or weed control at 125 g/ha ([9]; 125 g ai/ha, postemergence, visual injury on 0 to 100 scale (0 no effect, 100 complete control), approx. 10 d, read-out: Ryegrass, Italian plant response rating) was 70% and the pest or weed control at 31 g/ha ([9]; Postemergence, 31 g ai/ha, visual injury after approx. 10 d, 0 to 100 scale, 0 no effect, 100 complete control, read-out: Plant response rating, Ryegrass, Italian) was 0%. For the same compound, the pest or weed control at 125 g/ha ([10]; 125 g ai/ha, postemergence, visual injury on 0 to 100 scale (0 no effect, 100 complete control), approx. 10 d, read-out: Ragweed plant response rating) was 40%, the pest or weed control at 31 g/ha ([10]; Postemergence, 31 g ai/ha, visual injury after approx. 10 d, 0 to 100 scale, 0 no effect, 100 complete control, read-out: Plant response rating, Ragweed) was 0% and the plant injury at 125 g/ha (corn (Zea mays); 125 g ai/ha, postemergence, visual injury on 0 to 100 scale (0 no effect, 100 complete control), approx. 10 d, read-out: Corn plant response rating) was 70%. The Corn plant response rating (crop injury, 0 = no effect, 100 = complete kill) at 31 g/ha (corn (Zea mays); Postemergence, 31 g ai/ha, visual injury after approx. 10 d, 0 to 100 scale, 0 no effect, 100 complete control) was 20%, the plant injury at 125 g/ha ([11]; 125 g ai/ha, postemergence, visual injury on 0 to 100 scale (0 no effect, 100 complete control), approx. 10 d, read-out: Wheat plant response rating) was 60% and the plant injury at 31 g/ha ([11]; Postemergence, 31 g ai/ha, visual injury after approx. 10 d, 0 to 100 scale, 0 no effect, 100 complete control, read-out: Plant response rating, Wheat) was 0%. The pest or weed control at 125 g/ha ([12]; 125 g ai/ha, postemergence, visual injury on 0 to 100 scale (0 no effect, 100 complete control), approx. 10 d, read-out: Pigweed plant response rating) was 0%, the pest or weed control at 31 g/ha ([12]; Postemergence, 31 g ai/ha, visual injury after approx. 10 d, 0 to 100 scale, 0 no effect, 100 complete control, read-out: Plant response rating, Pigweed) was 0% and the pest or weed control at 125 g/ha ([13]; 125 g ai/ha, postemergence, visual injury on 0 to 100 scale (0 no effect, 100 complete control), approx. 10 d, read-out: Blackgrass plant response rating) was 50%. The pest or weed control at 31 g/ha ([13]; Postemergence, 31 g ai/ha, visual injury after approx. 10 d, 0 to 100 scale, 0 no effect, 100 complete control, read-out: Plant response rating, Blackgrass) was 40%, the pest or weed control at 125 g/ha ([14]; 125 g ai/ha, postemergence, visual injury on 0 to 100 scale (0 no effect, 100 complete control), approx. 10 d, read-out: Foxtail, Giant plant response rating) was 90% and the pest or weed control at 31 g/ha ([14]; Postemergence, 31 g ai/ha, visual injury after approx. 10 d, 0 to 100 scale, 0 no effect, 100 complete control, read-out: Plant response rating, Foxtail, Giant) was 80%. It also gave a pest or weed control at 250 g/ha [15] of 75%, a pest or weed control at 250 g/ha [16] of 0% and a pest or weed control at 250 g/ha (rice (Oryra sativa)) of 35%. The pest or weed control at 250 g/ha [17] was 100%.
